Measured values published in patent US6395740B1, “Calcitonin mimetics” (ZymoGenetics, Inc., priority 1997, dated 2002).

Tested on: PTH-induced bone resorption in mouse calvaria
Experiment: Calvarial assay to determine calcitonin escape
Assay type: cell-based
Protocol: Calvaria from 4-day old neonatal CD-1 mice (pregnant mice received from Charles River Laboratories) were trimmed with fine-tipped scissors to leave the parietal regions, including the sagittal suture. These trimmed bones were placed singly per well into 6-well culture cluster plates (Costar) with 1 mL/well of growth medium, Basel Medium (Eagle's with Earle's salts (GIBCO BRL, Gaithersburg, Md.)) containing 4.5 g/L glucose, 0.29 mg/mL L-glutamine, 1 mM sodium pyruvate, 15% heat-inactivated horse serum, antibiotics (penicillin-G 50 μg/mL, streptomycin 50 μg/mL, and neomycin 100 μg/mL) and containing 5 nM parathyroid hormone (PTH) 1-34 (Sigma), and rocked gently (RedRocker™) at 37° C. in a 5% CO2 humidified incubator for 17.5 hours preincubation. The concentration of PTH was chosen to insure maximum resorption. Calvaria designated as controls were pre-incubated in media without PTH.
Following preincubation, medium was removed and replaced with 1 mL/well of growth medium, as above, containing 20 or 30 μg/mL of the calcitonin mimetic 850-0231 in DMSO (final assay concentration of DMSO less than or equal to 1%), and compared with human calcitonin (hCT) tested at 0.5, 1.0, 5.0, […] All control wells contained a final assay concentration of DMSO equal to that present in the calcitonin mimetic treated wells.
Five bones were included in each sample group. Bones were incubated for a total of 98 hours. Time points were taken at 4, 8, 11, 24, 50.5, 72.5 and 98 hours. At each time point the media containing PTH was removed and fresh dilutions of compound in media were added to the calvaria. After the media was removed, total calcium measurements were made using a Nova 7/7+7 Electrolyte Analyzed (Nova Biomedical) according to the manufacturer's specifications. Induction of bone resorption by PTH is seen as an increase in the concentration of calcium in the growth medium due to degradation of the bone matrix.
A second calvaria bone resorption/escape assay was performed as described above with time points at 4, 8, 12, 16, 24, 49 and 73 hours. […] Histology was done on the PTH-treated and the 30 μg/mL calcitonin mimetic-treated calvaria.
A third calvaria bone resorption/escape assay was performed as described above with the following modifications. The calcitonin mimetic was tested at 5, 10 and 20 μg/mL. PTH was used at 10 nM to insure maximal resorption, hCT was tested at 2 nM and 8 nM and sCT was not included. Calvaria were pretreated with PTH for 19.75 hours. BrdU (bromodeoxyuridine, final concentration 10 μM) was added to the growth media for the final 17.5 hours, to identify proliferating cells. The lack of toxicity of 850-0231 will be verified by quartitating the number of proliferating BudU cells in histological sections of the calvaria. Time points were taken at 4, 8, 11, 24.5, 48 and 77 hours. A Novo CRT 10+ electrolyte analyzer (Nova Biomedical) was used to analyze the time point samples.
At the final time point, visual observations were made and photos taken to note the extent of resorption, and migration from the calvarial cells as a measure of toxicity. Again, human calcitonin lost its inhibitory effect between hours 11 and 24 (Table 5). The calvaria treated with the mimetic at 5 and 10 μg/mL also lost inhibitory effect between 11 and 24 hours.

`COc1cc(CN2CCN(C(=O)Nc3cccc(C(F)(F)F)c3)CC2)ccc1O` [Compound 850-0231] was tested, and the “escape / continued inhibition of resorption” value (first assay, PTH 5 nM, 30 μg/mL) was “did not undergo this escape and continued to inhibit resorption throughout the 98th, hour”, the “Cumulative Total Calcium” value (first assay, PTH 5 nM, 850-0231 30 μg/mL, 4 hours) was 0.16 mg % and the “Cumulative Total Calcium” value (first assay, PTH 5 nM, 850-0231 30 μg/mL, 8 hours) was 0.28 mg %. For the same compound, the “Cumulative Total Calcium” value (first assay, PTH 5 nM, 850-0231 30 μg/mL, 11 hours) was 0.36 mg %, the “Cumulative Total Calcium” value (first assay, PTH 5 nM, 850-0231 30 μg/mL, 24 hours) was 0.48 mg % and the “Cumulative Total Calcium” value (first assay, PTH 5 nM, 850-0231 30 μg/mL, 50.5 hours) was 0.32 mg %. The “Cumulative Total Calcium” value (first assay, PTH 5 nM, 850-0231 30 μg/mL, 72.5 hours) was 0.12 mg %, the “Cumulative Total Calcium” value (first assay, PTH 5 nM, 850-0231 30 μg/mL, 98 hours) was −0.18 mg % and the “toxicity judged by number of cells migrated from calvaria” value (first assay, final time point) was “not toxic to the cells”. The “visual observation of the calvaria (resorption)” value (first assay, final time point (98 hours)) was “almost identical in appearance to the untreated calavaria”, the “histology of treated calvaria (integrity, toxicity)” value (second assay, 30 μg/mL) was “intact and showed minimal signs of toxicity” and the “continued inhibition of resorption” value (second assay, PTH 5 nM) was “able to continue inhibition of resorption throughout the 73rd hour”. The “Cumulative Total Calcium” value (second assay, PTH 5 nM, 850-0231 30 μg/mL, 4 hours) was 0.40 mg %, the “Cumulative Total Calcium” value (second assay, PTH 5 nM, 850-0231 30 μg/mL, 8 hours) was 0.70 mg % and the “Cumulative Total Calcium” value (second assay, PTH 5 nM, 850-0231 30 μg/mL, 12 hours) was 0.88 mg %. For the same compound, the “Cumulative Total Calcium” value (second assay, PTH 5 nM, 850-0231 30 μg/mL, 16 hours) was 1.14 mg %, the “Cumulative Total Calcium” value (second assay, PTH 5 nM, 850-0231 30 μg/mL, 24 hours) was 1.04 mg % and the “Cumulative Total Calcium” value (second assay, PTH 5 nM, 850-0231 30 μg/mL, 49 hours) was 0.86 mg %. The “Cumulative Total Calcium” value (second assay, PTH 5 nM, 850-0231 30 μg/mL, 73 hours) was 0.56 mg %, the inhibition of resorption (third assay, PTH 10 nM, 20 μg/mL) was “significantly inhibited at all time points” and the “Cumulative Total Calcium” value (third assay, PTH 10 nM, 850-0231 5 μg/mL, 4 hours) was 0.47 mg %. The “Cumulative Total Calcium” value (third assay, PTH 10 nM, 850-0231 5 μg/mL, 8 hours) was 1.08 mg %, the “Cumulative Total Calcium” value (third assay, PTH 10 nM, 850-0231 5 μg/mL, 11 hours) was 1.49 mg % and the “Cumulative Total Calcium” value (third assay, PTH 10 nM, 850-0231 5 μg/mL, 24.5 hours) was 3.73 mg %. The “Cumulative Total Calcium” value (third assay, PTH 10 nM, 850-0231 5 μg/mL, 48 hours) was 7.54 mg %, the “Cumulative Total Calcium” value (third assay, PTH 10 nM, 850-0231 5 μg/mL, 77 hours) was 11.83 mg % and the “Cumulative Total Calcium” value (third assay, PTH 10 nM, 850-0231 10 μg/mL, 4 hours) was 0.41 mg %. The “Cumulative Total Calcium” value (third assay, PTH 10 nM, 850-0231 10 μg/mL, 8 hours) was 0.87 mg %, the “Cumulative Total Calcium” value (third assay, PTH 10 nM, 850-0231 10 μg/mL, 11 hours) was 1.30 mg % and the “Cumulative Total Calcium” value (third assay, PTH 10 nM, 850-0231 10 μg/mL, 24.5 hours) was 3.05 mg %. For the same compound, the “Cumulative Total Calcium” value (third assay, PTH 10 nM, 850-0231 10 μg/mL, 48 hours) was 5.96 mg %, the “Cumulative Total Calcium” value (third assay, PTH 10 nM, 850-0231 10 μg/mL, 77 hours) was 8.87 mg % and the “Cumulative Total Calcium” value (third assay, PTH 10 nM, 850-0231 20 μg/mL, 4 hours) was 0.35 mg %. For the same compound, the “Cumulative Total Calcium” value (third assay, PTH 10 nM, 850-0231 20 μg/mL, 8 hours) was 0.70 mg %, the “Cumulative Total Calcium” value (third assay, PTH 10 nM, 850-0231 20 μg/mL, 11 hours) was 0.94 mg % and the “Cumulative Total Calcium” value (third assay, PTH 10 nM, 850-0231 20 μg/mL, 24.5 hours) was 2.23 mg %. For the same compound, the “Cumulative Total Calcium” value (third assay, PTH 10 nM, 850-0231 20 μg/mL, 48 hours) was 3.20 mg % and the “Cumulative Total Calcium” value (third assay, PTH 10 nM, 850-0231 20 μg/mL, 77 hours) was 3.78 mg %.
